From patent US9957271B2, “Substituted bicyclic aza-heterocycles and analogues as sirtuin modulators” (GlaxoSmithKline, LLC, priority 2012, dated 2018)

Experiments:
SIRT1 [1] = target: T1, SIRT1 (Homo sapiens, UniProt Q96EB6); experiment: TAMRA based mass spectrometry assay of SIRT1 activity; format: biochemical; conditions: for Emax: read-out: TAMRA % Fold Act
T1 sequence (Q96EB6 1-747): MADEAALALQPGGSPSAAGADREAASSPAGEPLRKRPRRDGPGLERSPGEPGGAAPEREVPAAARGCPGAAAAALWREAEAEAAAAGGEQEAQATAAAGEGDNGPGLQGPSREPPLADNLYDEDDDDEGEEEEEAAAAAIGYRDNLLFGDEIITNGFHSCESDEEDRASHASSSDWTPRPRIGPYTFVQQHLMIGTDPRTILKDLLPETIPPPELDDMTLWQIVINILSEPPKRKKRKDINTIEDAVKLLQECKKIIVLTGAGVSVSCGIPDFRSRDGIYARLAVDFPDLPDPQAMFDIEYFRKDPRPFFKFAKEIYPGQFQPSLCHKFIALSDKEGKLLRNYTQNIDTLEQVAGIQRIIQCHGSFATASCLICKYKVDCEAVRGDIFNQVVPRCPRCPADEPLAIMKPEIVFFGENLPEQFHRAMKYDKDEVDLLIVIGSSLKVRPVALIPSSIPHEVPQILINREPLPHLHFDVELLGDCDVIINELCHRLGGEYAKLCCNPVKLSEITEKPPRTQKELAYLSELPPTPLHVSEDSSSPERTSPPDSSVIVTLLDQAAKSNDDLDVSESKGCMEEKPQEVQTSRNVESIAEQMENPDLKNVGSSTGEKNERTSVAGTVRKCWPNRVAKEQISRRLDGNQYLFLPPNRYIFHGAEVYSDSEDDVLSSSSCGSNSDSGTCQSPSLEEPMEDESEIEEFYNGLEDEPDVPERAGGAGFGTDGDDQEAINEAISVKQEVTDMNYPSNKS
Procedure, shortened: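 Deacetylation of a biotinylated, TAMRA-tagged p53-based peptide (0.5 μM) by 10 nM His-tagged SIRT1 with 120 μM βNAD+, 25 °C for 25 min, pH 8 Tris-acetate buffer, across a compound concentration range. Quenched by formic acid and read by mass spec as product peptide or OAADPR; activity relative to DMSO reactions, nicotinamide defining maximal inhibition.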

SIRT1 [2] = target: T1, SIRT1; experiment: Trp mass spectrometry assay of SIRT1 activity; format: biochemical; conditions: for Emax: read-out: Trp % Fold Act
Procedure, shortened: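 Activation readout: EC1.5 (concentration raising activity 50% over control) and percent maximum activation, from mass-spec quantitation of OAADPR or deacetylated Trp peptide. Reaction: 0.5 μM acetylated Trp peptide, 120 μM βNAD+, 10 nM bacterially expressed N-His SIRT1, pH 7.5 HEPES buffer with […], 25 min at 25° C.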

[3] = TAMRA peptide substrate, concentration giving 150% activation of SIRT1
[4] = TAMRA peptide substrate, percent maximum fold activation
[5] = Trp peptide substrate, concentration giving 150% activation of SIRT1
[6] = Trp peptide substrate, percent maximum fold activation
[7] = TAMRA assay, concentration giving 150% activation of SIRT1
[8] = TAMRA assay, percent maximum fold activation
[9] = Trp assay, concentration giving 150% activation of SIRT1
[10] = Trp assay, percent maximum fold activation
[11] = concentration of test compound giving 150% activation of SIRT1, TAMRA peptide substrate
[12] = percent maximum fold activation of SIRT1, TAMRA peptide substrate
[13] = concentration of test compound giving 150% activation of SIRT1, Trp peptide substrate
[14] = percent maximum fold activation of SIRT1, Trp peptide substrate

Structure (SMILES) | TAMRA EC1.5 (μM) (SIRT1 [1]; [7]) | Emax (SIRT1 [1]; [8]) [%] | Trp EC1.5 (μM) (SIRT1 [2]; [9]) | Emax (SIRT1 [2]; [10]) [%] | also measured
Cc1nc2c(C)cc(-c3ccccc3C(F)(F)F)nn2c1C(=O)Nc1cccnn1 [Compound 428, 2,8-dimethyl-N-(pyridazin-3-yl)-6-(2-(trifluoromethyl)phenyl)imidazo[1,2-b]pyridazine-3-carboxamide] |  |  |  |  | TAMRA EC1.5 (SIRT1 [1]; [3]): A (EC1.5<1 μM); Emax (SIRT1 [1]; [4]): ≥ 350%; Trp EC1.5 (SIRT1 [2]; [5]): A (EC1.5<1 μM); Emax (SIRT1 [2]; [6]): ≥ 350%
O=C(Nc1cnccn1)c1cnn2ccc(-c3ccccc3C(F)(F)F)nc12 [Compound 267] | A (EC1.5<1 μM) | ≥ 350 | B (EC1.5 1-25 μM) | < 350 | 
O=C(Nc1cnc2ccc(-c3ccccc3C(F)(F)F)nn12)c1cccnc1OCC(O)CO (stereo not drawn) [Compound 146] |  |  |  |  | TAMRA EC1.5 (μM) (SIRT1 [1]; [11]): A (EC1.5<1 μM); Emax (SIRT1 [1]; [12]): ≥ 350%; Trp EC1.5 (μM) (SIRT1 [2]; [13]): B (EC1.5 1-25 μM); Emax (SIRT1 [2]; [14]): ≥ 350%
Cn1nccc1C(=O)Nc1cnc2ccc(-c3ccccc3C(F)(F)F)nn12 [Compound 93] |  |  |  |  | TAMRA EC1.5 (μM) (SIRT1 [1]; [11]): C (EC1.5>25 μM); Emax (SIRT1 [1]; [12]): < 350%; Trp EC1.5 (μM) (SIRT1 [2]; [13]): C (EC1.5>25 μM); Emax (SIRT1 [2]; [14]): < 350%
O=C(Nc1cccnn1)c1cnc2ccc(-c3ccccc3OC(F)(F)F)nn12 [Compound 395] | A (EC1.5<1 μM) | ≥ 350 | A (EC1.5<1 μM) | ≥ 350 | 
Cc1cc(NC(=O)c2cnc3ccc(-c4ccccc4OCC(O)CO)nn23)cc(C)n1 (stereo not drawn) [Compound 415] |  |  |  |  | TAMRA EC1.5 (SIRT1 [1]; [3]): A (EC1.5<1 μM); Emax (SIRT1 [1]; [4]): ≥ 350%; Trp EC1.5 (SIRT1 [2]; [5]): B (EC1.5 1-25 μM); Emax (SIRT1 [2]; [6]): ≥ 350%
Cc1csc(NC(=O)c2c(C)nn3ccc(-c4ccccc4C(F)(F)F)nc23)n1 [Compound 650] | A (EC1.5<1 μM) | ≥ 350 | A (EC1.5<1 μM) | ≥ 350 | 
Cc1cccc(-c2ccc3nc(C)c(C(=O)Nc4cccnn4)n3n2)c1 [Compound 766] | A (EC1.5<1 μM) | < 350 | A (EC1.5<1 μM) | < 350 | 
O=C(Nc1ccncn1)c1cnc2ccc(-c3ccccc3C(F)(F)F)nn12 [Compound 80] |  |  |  |  | TAMRA EC1.5 (μM) (SIRT1 [1]; [11]): B (EC1.5 1-25 μM); Emax (SIRT1 [1]; [12]): ≥ 350%; Trp EC1.5 (μM) (SIRT1 [2]; [13]): C (EC1.5>25 μM); Emax (SIRT1 [2]; [14]): < 350%
COc1ccnc(NC(=O)c2cnc3ccc(-c4ccccc4C(F)(F)F)nn23)n1 [Compound 175] |  |  |  |  | TAMRA EC1.5 (μM) (SIRT1 [1]; [11]): A (EC1.5<1 μM); Emax (SIRT1 [1]; [12]): ≥ 350%; Trp EC1.5 (μM) (SIRT1 [2]; [13]): B (EC1.5 1-25 μM); Emax (SIRT1 [2]; [14]): ≥ 350%
Cc1scnc1C(=O)Nc1cnn2ccc(-c3ccccc3C(F)(F)F)nc12 [Compound 803] | B (EC1.5 1-25 μM) | ≥ 350 | C (EC1.5>25 μM) | < 350 | 
Cc1cccc(NC(=O)c2cnc3ccc(-c4ccccc4OC(F)(F)F)nn23)n1 [Compound 431] |  |  |  |  | TAMRA EC1.5 (SIRT1 [1]; [3]): A (EC1.5<1 μM); Emax (SIRT1 [1]; [4]): ≥ 350%; Trp EC1.5 (SIRT1 [2]; [5]): B (EC1.5 1-25 μM); Emax (SIRT1 [2]; [6]): < 350%
O=C(Nc1cccc(N2CCOCC2)n1)c1cnc2ccc(-c3c(F)cccc3Cl)nn12 [Compound 164] |  |  |  |  | TAMRA EC1.5 (μM) (SIRT1 [1]; [11]): A (EC1.5<1 μM); Emax (SIRT1 [1]; [12]): ≥ 350%; Trp EC1.5 (μM) (SIRT1 [2]; [13]): B (EC1.5 1-25 μM); Emax (SIRT1 [2]; [14]): < 350%
Cc1cc(C)nc(C(=O)Nc2cnc3ccc(-c4ccccc4C(F)(F)F)nn23)c1 [Compound 436] |  |  |  |  | TAMRA EC1.5 (SIRT1 [1]; [3]): A (EC1.5<1 μM); Emax (SIRT1 [1]; [4]): ≥ 350%; Trp EC1.5 (SIRT1 [2]; [5]): C (EC1.5>25 μM); Emax (SIRT1 [2]; [6]): < 350%
Cc1cc(C)nc(NC(=O)c2cnc3ccc(-c4cccc(OC[C@H](O)CO)c4)nn23)c1 [Compound 591] |  |  |  |  | TAMRA EC1.5 (SIRT1 [1]; [3]): A (EC1.5<1 μM); Emax (SIRT1 [1]; [4]): ≥ 350%; Trp EC1.5 (SIRT1 [2]; [5]): A (EC1.5<1 μM); Emax (SIRT1 [2]; [6]): < 350%
O=C(Nc1ccc(CN2CCCC2)nc1)c1cnc2ccc(-c3ccccc3C(F)(F)F)nn12 [Compound 149] |  |  |  |  | TAMRA EC1.5 (μM) (SIRT1 [1]; [11]): B (EC1.5 1-25 μM); Emax (SIRT1 [1]; [12]): < 350%; Trp EC1.5 (μM) (SIRT1 [2]; [13]): B (EC1.5 1-25 μM); Emax (SIRT1 [2]; [14]): < 350%
Cc1nc2ccc(-c3ccccc3C(F)(F)F)nn2c1NC(=O)c1nccs1 [Compound 380] | B (EC1.5 1-25 μM) | ≥ 350 | C (EC1.5>25 μM) | < 350 | 
O=C(Nc1cnc2ccc(-c3ccccc3F)nn12)c1ccncn1 [Compound 281] | C (EC1.5>25 μM) | < 350 | C (EC1.5>25 μM) | < 350 | 
Cc1nc(C(=O)Nc2cnn3ccc(-c4ccccc4OC(F)(F)F)nc23)cs1 [Compound 752] | B (EC1.5 1-25 μM) | ≥ 350 | B (EC1.5 1-25 μM) | < 350 | 
O=C(Nc1cnn2ccc(-c3ccccc3C(F)(F)F)nc12)c1cccc(CN2CCOCC2)n1 [Compound 255] | A (EC1.5<1 μM) | ≥ 350 | B (EC1.5 1-25 μM) | < 350 | 
O=C(Nc1ccncc1)c1cnc2ccc(-c3ccc(F)c(F)c3F)nn12 [Compound 128] |  |  |  |  | TAMRA EC1.5 (μM) (SIRT1 [1]; [11]): C (EC1.5>25 μM); Emax (SIRT1 [1]; [12]): < 350%; Trp EC1.5 (μM) (SIRT1 [2]; [13]): C (EC1.5>25 μM); Emax (SIRT1 [2]; [14]): < 350%
O=C(Nc1ccnc(N2CCCC2)c1)c1cnc2ccc(-c3ccccc3C(F)(F)F)nn12 [Compound 25] |  |  |  |  | TAMRA EC1.5 (μM) (SIRT1 [1]; [11]): A (EC1.5<1 μM); Emax (SIRT1 [1]; [12]): ≥ 350%; Trp EC1.5 (μM) (SIRT1 [2]; [13]): A (EC1.5<1 μM); Emax (SIRT1 [2]; [14]): ≥ 350%
O=C(Nc1cnn2ccc(-c3ccccc3C(F)(F)F)nc12)c1cnc(O)cn1 [Compound 828] | A (EC1.5<1 μM) | ≥ 350 | C (EC1.5>25 μM) | < 350 | 
COc1cccc(NC(=O)c2cnc3ccc(-c4ccccc4F)nn23)n1 [Compound 244] | B (EC1.5 1-25 μM) | < 350 | A (EC1.5<1 μM) | < 350 | 
CN(C)c1cccc(NC(=O)c2cnc3ccc(-c4ccccc4C(F)(F)F)nn23)n1 [Compound 104] |  |  |  |  | TAMRA EC1.5 (μM) (SIRT1 [1]; [11]): A (EC1.5<1 μM); Emax (SIRT1 [1]; [12]): ≥ 350%; Trp EC1.5 (μM) (SIRT1 [2]; [13]): B (EC1.5 1-25 μM); Emax (SIRT1 [2]; [14]): < 350%
COc1cc(NC(=O)c2c(C)nn3ccc(-c4ccccc4C(F)(F)F)nc23)ncn1 [Compound 778] | A (EC1.5<1 μM) | ≥ 350 | A (EC1.5<1 μM) | < 350 | 
Cc1nc2c(C)cc(-c3ccccc3C(F)(F)F)nn2c1C(=O)NCc1ccccn1 [Compound 561] |  |  |  |  | TAMRA EC1.5 (SIRT1 [1]; [3]): B (EC1.5 1-25 μM); Emax (SIRT1 [1]; [4]): < 350%; Trp EC1.5 (SIRT1 [2]; [5]): B (EC1.5 1-25 μM); Emax (SIRT1 [2]; [6]): ≥ 350%

Second part, led by results:

TAMRA EC1.5 (μM) (SIRT1 [1]; [7]) | Emax (SIRT1 [1]; [8]) [%] | Trp EC1.5 (μM) (SIRT1 [2]; [9]) | Emax (SIRT1 [2]; [10]) [%] | Structure (SMILES) | also measured
A (EC1.5<1 μM) | ≥ 350 | A (EC1.5<1 μM) | ≥ 350 | O=C(Nc1cncc(OCC(O)CO)n1)c1cnc2ccc(-c3ccccc3C(F)(F)F)nn12 (stereo not drawn) [Compound 213] | 
C (EC1.5>25 μM) | < 350 | C (EC1.5>25 μM) | < 350 | O=C(Nc1cnc2ccc(-c3ccccc3C(F)(F)F)nn12)c1ccnc(CN2CCCC2)c1 [Compound 214] | 
A (EC1.5<1 μM) | ≥ 350 | A (EC1.5<1 μM) | ≥ 350 | O=C(Nc1cnc2ccc(-c3ccccc3OC(F)(F)F)nn12)c1cccc(OCC(O)CO)n1 (stereo not drawn) [Compound 323] | 
C (EC1.5>25 μM) | < 350 | C (EC1.5>25 μM) | < 350 | O=C(Nc1ccnc(OCC(O)CO)c1)c1cnc2ccc(-c3ccccc3F)nn12 (stereo not drawn) [Compound 284] | 
A (EC1.5<1 μM) | ≥ 350 | B (EC1.5 1-25 μM) | < 350 | CC(C)c1csc(C(=O)Nc2cnc3ccc(-c4ccccc4C(F)(F)F)nn23)n1 [Compound 272] | 
A (EC1.5<1 μM) | ≥ 350 | A (EC1.5<1 μM) | < 350 | N#Cc1ccccc1-c1ccc2ncc(NC(=O)c3cccc(OCC(O)CO)n3)n2n1 (stereo not drawn) [Compound 339] | 
